Measured values as given in patent publication US20130143881A1, “Hydrated Crystalline Forms of N-[3-fluoro-4-(oxy)phenyl]-N'-(4-fluorophenyl)cyclopropane-1,1-dicarboxamide” (Exelixis, Inc., priority 2010, published 2013).

Experiment: Gravimetric vapor sorption (GVS) study
Type: physicochemical
Conditions: 25° C. and 90 percent humidity
Procedure: A gravimetric vapor sorption (GVS) study was run using a standard procedure. Samples were run on a dynamic vapor sorption analyzer (Surface Measurement Systems) running DVSCFR software. Sample sizes were typically 10 mg. A moisture adsorption desorption isotherm was performed as outlined below. The standard isotherm experiment, performed at 25° C., is a two-cycle run, starting at 40 percent RH, increasing humidity to 90 percent RH, decreasing humidity to 0 percent RH, increasing humidity again to 90 percent RH, and finally decreasing humidity to 0 percent RH in 10 percent RH intervals.

weight gain (GVS moisture sorption): 2.5%
SMILES: COc1cc2c(Oc3ccc(NC(=O)C4(C(=O)Nc5ccc(F)cc5)CC4)cc3F)ccnc2cc1OCCCN1CCOCC1 [crystalline Compound (I), N-[3-fluoro-4-({6-(methyloxy)-7-[(3-morpholin-4-ylpropyl)oxy]quinolin-4-yl}oxy)phenyl]-N′-(4-fluorophenyl)cyclopropane-1,1-dicarboxamide crystalline hydrate]
